This is an account of results in publication PMC6964137 (The Oncologist, 2019).

Where two headings read alike, the source gives them in different places.

Data set [1] can be described thus: Plasma pharmacokinetics, Cycle 1. The format is in vivo, patients.
The conditions of data set [2]: cited from earlier work.
Data set [3] relates to NRAS- and BRAF-mutant melanoma. Particulars: single agent, cited from earlier work.
The conditions of data set [4]: cited from earlier work. The source holds these as a separate data set.
The test system of another data set is ovarian cancer. As to conditions: single agent, irrespective of BRAF or KRAS status; cited from earlier work.

What is called AUC is concentration integrated over time. Molecule `Cn1cnc2c(F)c(Nc3ccc(Br)cc3F)c(C(=O)NOCCO)cc21` [binimetinib] came in with an AUC in data set [1] (human, plasma, oral, mean AUCtau, binimetinib 45 mg b.i.d. and buparlisib 80 mg q.d.) of 2670 ng·h/mL. In addition, in data set [1] (in vivo), the “Effect of buparlisib on PK of binimetinib” value is recorded as “not altered by buparlisib”. In addition, in data set [2], the “MTD, single agent” value is recorded as 60 mg b.i.d. Moreover, in data set [2] (single-agent phase I study, same dosing schedule), the “mean AUCtau” value is on record as 1,740 ng•hour/mL. In addition, the Objective response rate in data set [3] (BRAF-mutant melanoma) was 6%; in data set [3] (NRAS-mutant melanoma) it was 11%.
What is called Cmax is the peak of the concentration-time curve. With `Nc1cc(C(F)(F)F)c(-c2cc(N3CCOCC3)nc(N3CCOCC3)n2)cn1` [buparlisib], the AUC in data set [1] (human, plasma, oral, AUCtau, present study, combination at RP2D) was 11700 ng·h/mL. Moreover, in data set [1] (human, plasma, oral, Cmax, present study, combination at RP2D), the Cmax is 764 ng/mL. For the same molecule, in data set [1] (in many patients, versus single-agent data), the “Reduction of Cmax and AUCtau when combined with binimetinib” value is reported as greater than 50%. In addition, the “MTD, single agent” value in data set [4] was 100 mg once daily (q.d.). In data set [4] (single-agent study), the AUCtau is 15,413 ng•hour/mL and the Cmax is given as 1,098 ng/mL.
Turning to `Cn1cnc2c(F)c(Nc3ccc(Br)cc3Cl)c(C(=O)NOCCO)cc21` [selumetinib], in the data set with ovarian cancer, the Response rate is recorded as 15%.
